# According to patent publication US6472348B1, “Pyridone derivatives and herbicides” (Kumiai Chemical Industry Co., Ltd., priority 1996, dated 2002):
# What was measured:
# Assay type in all cases: in vivo
# soybean (Gl) = test: Test Example 6: crop plant selectivity by upland field soil treatment (soybean), phytotoxicity; set-up: scale not given here; conditions: 21st day after application
# Summary of the method: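 Soybean and weeds sown in sand-filled pots and covered with soil, then treated by soil application. Plants grown in a greenhouse, with herbicidal effect and crop phytotoxicity scored on day 21 after application against a fixed rating scale.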
# Diaitaria ciliaris (Di) = test: Test Example 3: herbicidal effects by upland field foliage treatment; set-up: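 grade of growth control; 5 = at least 90%; 4 = 70 to 90%; 3 = 50 to 70%; 2 = 30 to 50%; 1 = 10 to 30%; 0 = under 10%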
# Summary of the method: (§1)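 Weeds were sown in sand-filled pots (surface area: 120 cm^2), covered with soil and grown in a greenhouse for 2 weeks before foliar treatment. Plants then stayed in the greenhouse, and herbicidal effect was scored against graded standards on the 14th day after treatment.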
# [1] = tested on: common lambsquarters (Ch); test: as above; set-up: scale not given here
# Summary of the method: as §1
# barnyardgrass (Ec) [2] = test: as above; set-up: scale not given here
# Summary of the method: as §1
# pale smartweed (Po) = test: as above; set-up: scale not given here
# Summary of the method: as §1
# rice flatsedge (Ci) = test: as above; set-up: scale not given here
# Summary of the method: as §1
# slender amaranth (Am) = test: as above; set-up: scale not given here
# Summary of the method: as §1
# wheat (Tr) = test: Test Example 5: crop plant selectivity by upland field soil treatment (wheat), phytotoxicity; set-up: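 grade of crop injury; 5 = at least 90%; 4 = 70 to 90%; 3 = 50 to 70%; 2 = 30 to 50%; 1 = 10 to 30%; 0 = under 10%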; conditions: 21st day after application
# Summary of the method: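 Wheat and weeds were sown in sand-filled pots and covered with soil, then treated by soil application. Plants grew in a greenhouse, and herbicidal effect and crop phytotoxicity were scored on a rating scale 21 days after application.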
# monochoria (Mo) = test: Test Example 1: herbicidal effects by paddy field soil treatment; conditions: 100 g of the active ingredient per 10 ares, 21st day after the application, index 0-5 of Table 47;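 further: grade of growth control; 5 = at least 90%; 4 = 70 to 90%; 3 = 50 to 70%; 2 = 30 to 50%; 1 = 10 to 30%; 0 = under 10%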
# Summary of the method: (§2)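 Herbicidal effect was scored against a graded standard 21 days after treatment. Seeds were sown in puddled, leveled paddy soil flooded to 3 cm depth, and the active ingredient was applied at 100 g per 10 ares before greenhouse culture.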
# barnyardgrass (Ec) [3] = test: as above; conditions: 100 g of the active ingredient per 10 ares, 21st day after the application, index 0-5 of Table 47
# Summary of the method: as §2
# bulrush (Sc) = test: as above; conditions: 100 g of the active ingredient per 10 ares, 21st day after the application, index 0-5 of Table 47;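 further: grade of growth control; 5 = at least 90%; 4 = 70 to 90%; 3 = 50 to 70%; 2 = 30 to 50%; 1 = 10 to 30%; 0 = under 10%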
# Summary of the method: as §2
# [4] = 100 g active ingredient per 10 ares, evaluated 14th day after treatment
# [5] = 100 g of the active ingredient per 10 ares, evaluated on the 14th day after treatment
Compound,Phytotoxicity Gl (soybean (Gl); dose 1.6 g ai/10a),Herbicidal effects Di (Diaitaria ciliaris (Di); [4]),"Herbicidal effects Ch [1, 4]",Herbicidal effects Ec (barnyardgrass (Ec) [2]; [4]),Herbicidal effects Po (pale smartweed (Po); [4]),Herbicidal effects Ci (rice flatsedge (Ci); [4]),Herbicidal effects Am (slender amaranth (Am); [4]),Phytotoxicity Tr (wheat (Tr); dose 1.6 g ai/10a),Herbicidal effects Mo (monochoria (Mo)),Herbicidal effects Ec (barnyardgrass (Ec) [3]),Herbicidal effects Sc (bulrush (Sc)),Herbicidal effects Di (Diaitaria ciliaris (Di); [5]),"Herbicidal effects Ch [1, 5]",Herbicidal effects Ec (barnyardgrass (Ec) [2]; [5]),Herbicidal effects Po (pale smartweed (Po); [5]),Herbicidal effects Ci (rice flatsedge (Ci); [5]),Herbicidal effects Am (slender amaranth (Am); [5]),Phytotoxicity Tr (wheat (Tr); dose 6.3 g ai/10a),Phytotoxicity Gl (soybean (Gl); dose 6.3 g ai/10a)
C#CC(C)Oc1cc(-c2cn(C)c(C(F)(F)F)cc2=O)c(F)cc1Cl (racemic) [Compound 6-10],0,5,5,5,5,5,5,0,5,5,5,–,–,–,–,–,–,–,–
COc1cc(-c2ccc(C(F)(F)F)n(C)c2=O)c(F)cc1Cl [1-15],2,–,–,–,–,–,–,2,5,5,5,5,5,5,5,5,5,–,–
C=CCOc1cc(-c2ccc(C(F)(F)F)n(C)c2=O)c(F)cc1Cl [1-16],1,–,–,–,–,–,–,1,5,5,5,5,5,5,5,5,5,1,–
C#CCOc1cc(-c2ccc(C(F)(F)F)n(C)c2=O)c(F)cc1Cl [1-18],1,–,–,–,–,–,–,2,5,5,5,5,5,5,5,5,5,–,–
Cn1c(C(F)(F)F)ccc(-c2cc(OCC#N)c(Cl)cc2F)c1=O [1-25],–,–,–,–,–,–,–,–,5,5,5,5,5,5,5,5,5,–,2
C#CCOc1cc(-c2ccc(C(F)(F)F)n(C)c2=O)c(Cl)cc1Cl [1-30],1,–,–,–,–,–,–,2,5,5,5,5,5,5,5,5,5,–,–
CC(C)Sc1cc(-c2ccc(C(F)(F)F)n(C)c2=O)c(F)cc1Cl [1-43],–,–,–,–,–,–,–,–,5,5,5,5,5,5,5,5,5,1,1
C#CCSc1cc(-c2ccc(C(F)(F)F)n(C)c2=O)c(F)cc1Cl [1-44],–,–,–,–,–,–,–,–,5,5,5,5,5,5,5,5,5,1,1
